Test results from patent publication US20040110787A1, “Heteroaryl-ethanolamine derivatives as antiviral agents” (priority 2002, published 2004).
Like-named read-outs stand apart in the source and are kept apart here.

What was measured:
HCMV polymerase = biological target: T1, HCMV polymerase (Human cytomegalovirus, UniProt P08546); experiment: HCMV polymerase scintillation proximity assay (SPA); assay type: biochemical
T1 construct: made in house; host or cells: recombinant baculovirus-infected SF-9 cells
T1 sequence (P08546 whole entry): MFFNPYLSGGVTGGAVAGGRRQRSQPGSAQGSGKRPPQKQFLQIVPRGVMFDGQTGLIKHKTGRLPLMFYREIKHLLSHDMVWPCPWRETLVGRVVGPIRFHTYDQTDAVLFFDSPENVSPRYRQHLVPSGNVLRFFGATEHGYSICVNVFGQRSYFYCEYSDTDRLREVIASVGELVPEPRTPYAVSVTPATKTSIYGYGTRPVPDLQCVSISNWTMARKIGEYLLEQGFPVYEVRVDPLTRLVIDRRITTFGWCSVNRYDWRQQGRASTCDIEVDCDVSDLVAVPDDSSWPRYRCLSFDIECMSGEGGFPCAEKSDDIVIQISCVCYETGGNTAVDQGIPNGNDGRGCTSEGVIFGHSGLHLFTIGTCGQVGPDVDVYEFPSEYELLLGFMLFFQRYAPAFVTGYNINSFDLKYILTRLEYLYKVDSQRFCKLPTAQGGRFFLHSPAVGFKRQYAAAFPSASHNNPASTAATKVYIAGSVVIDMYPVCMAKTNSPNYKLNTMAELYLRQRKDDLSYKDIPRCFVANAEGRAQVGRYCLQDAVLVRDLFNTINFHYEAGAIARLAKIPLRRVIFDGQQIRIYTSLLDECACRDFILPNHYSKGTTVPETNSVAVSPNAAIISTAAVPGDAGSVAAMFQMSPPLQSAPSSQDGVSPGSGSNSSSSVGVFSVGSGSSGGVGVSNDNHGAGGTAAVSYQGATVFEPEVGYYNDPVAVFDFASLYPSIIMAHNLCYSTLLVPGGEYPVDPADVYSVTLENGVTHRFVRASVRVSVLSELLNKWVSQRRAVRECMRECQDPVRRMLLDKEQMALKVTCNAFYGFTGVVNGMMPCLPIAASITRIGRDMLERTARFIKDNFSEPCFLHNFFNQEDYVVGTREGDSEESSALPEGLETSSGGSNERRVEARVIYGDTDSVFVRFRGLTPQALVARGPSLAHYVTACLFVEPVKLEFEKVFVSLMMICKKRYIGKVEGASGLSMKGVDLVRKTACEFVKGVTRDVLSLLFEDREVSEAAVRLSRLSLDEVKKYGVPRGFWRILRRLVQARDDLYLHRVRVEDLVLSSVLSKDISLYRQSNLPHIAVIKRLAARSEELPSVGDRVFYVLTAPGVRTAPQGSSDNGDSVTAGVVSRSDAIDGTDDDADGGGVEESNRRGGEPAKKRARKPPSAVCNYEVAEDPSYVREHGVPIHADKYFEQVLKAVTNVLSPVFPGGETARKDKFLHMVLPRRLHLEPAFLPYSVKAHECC
Procedure: The HCMV polymerase assay is performed using a scintillation proximity assay (SPA) as described in several references, such as N. D. Cook, et al., Pharmaceutical Manufacturing International, pages 49-53 (1992); K Takeuchi, Laboratory Practice, September issue (1992); U.S. Pat. No. 4,568,649 (1986); which are incorporated by reference herein. Reactions are performed in 96-well plates. The assay is conducted in 100 μl volume with 5.4 mM HEPES (pH 7.5), 11.7 mM KCl, 4.5 mM MgCl2, 0.36 mg/ml BSA, and 90 nM ^3H-dTTP. Assays are run with and without CHAPS, (3-[(3-Cholamidopropyl)-dimethylammonio]-1-propane-sulfonate) at a final concentration of 2 mM. HCMV polymerase is diluted in enzyme dilution buffer containing 50% glycerol, 250 mM NaCl, 10 mM HEPES (pH 7.5), 100 μg/ml BSA, and 0.01% sodium azide. The HCMV polymerase, which is expressed in, recombinant baculovirus-infected SF-9 cells and purified according to literature procedures, is added at 10% (or 10 μl) of the final reaction volume, i.e., 100 μl. Compounds are diluted in 50% DMSO and 10 μl are added to each well. Control wells contain an equivalent concentration of DMSO. Unless noted otherwise, reactions are initiated via the addition of 6 nM biotinylated poly(dA)-oligo(dT) template/primer to reaction mixtures containing the enzyme, substrate, and compounds of interest. Plates are incubated in a 25° C. or 37° C. H2O bath and terminated via the addition of 40 μl/reaction of 0.5 M EDTA (pH 8) per well. Reactions are terminated within the time-frame during which substrate incorporation is linear and varied depending upon the enzyme and conditions used, i.e., 30 min. for HCMV polymerase. Ten (10) 10 μL of streptavidin-SPA beads (20 mg/ml in PBS/10% glycerol) are added following termination of the reaction. Plates are incubated 10 min. at 37° C., then equilibrated to room temperature, and counted on a Packard Topcount. Linear regressions are performed and IC50's are calculated using computer software.
A modified version of the above HCMV polymerase assay is performed as described above, but with the following changes: Compounds are diluted in 100% DMSO until final dilution into assay buffer. In the previous assay, compounds are diluted in 50% DMSO. 4.5 mM Dithiothreitol (DTT) is added to the polymerase buffer.
All results are listed as Polymerase IC50 ([…]) values. In Table 1, the term “n.d.” refers to activity data not determined.

HSV polymerase = HSV polymerase (Human herpesvirus 1, UniProt P04293); experiment: HSV polymerase assay (Table 1); assay type: biochemical
HSV polymerase, sequence (P04293 whole entry): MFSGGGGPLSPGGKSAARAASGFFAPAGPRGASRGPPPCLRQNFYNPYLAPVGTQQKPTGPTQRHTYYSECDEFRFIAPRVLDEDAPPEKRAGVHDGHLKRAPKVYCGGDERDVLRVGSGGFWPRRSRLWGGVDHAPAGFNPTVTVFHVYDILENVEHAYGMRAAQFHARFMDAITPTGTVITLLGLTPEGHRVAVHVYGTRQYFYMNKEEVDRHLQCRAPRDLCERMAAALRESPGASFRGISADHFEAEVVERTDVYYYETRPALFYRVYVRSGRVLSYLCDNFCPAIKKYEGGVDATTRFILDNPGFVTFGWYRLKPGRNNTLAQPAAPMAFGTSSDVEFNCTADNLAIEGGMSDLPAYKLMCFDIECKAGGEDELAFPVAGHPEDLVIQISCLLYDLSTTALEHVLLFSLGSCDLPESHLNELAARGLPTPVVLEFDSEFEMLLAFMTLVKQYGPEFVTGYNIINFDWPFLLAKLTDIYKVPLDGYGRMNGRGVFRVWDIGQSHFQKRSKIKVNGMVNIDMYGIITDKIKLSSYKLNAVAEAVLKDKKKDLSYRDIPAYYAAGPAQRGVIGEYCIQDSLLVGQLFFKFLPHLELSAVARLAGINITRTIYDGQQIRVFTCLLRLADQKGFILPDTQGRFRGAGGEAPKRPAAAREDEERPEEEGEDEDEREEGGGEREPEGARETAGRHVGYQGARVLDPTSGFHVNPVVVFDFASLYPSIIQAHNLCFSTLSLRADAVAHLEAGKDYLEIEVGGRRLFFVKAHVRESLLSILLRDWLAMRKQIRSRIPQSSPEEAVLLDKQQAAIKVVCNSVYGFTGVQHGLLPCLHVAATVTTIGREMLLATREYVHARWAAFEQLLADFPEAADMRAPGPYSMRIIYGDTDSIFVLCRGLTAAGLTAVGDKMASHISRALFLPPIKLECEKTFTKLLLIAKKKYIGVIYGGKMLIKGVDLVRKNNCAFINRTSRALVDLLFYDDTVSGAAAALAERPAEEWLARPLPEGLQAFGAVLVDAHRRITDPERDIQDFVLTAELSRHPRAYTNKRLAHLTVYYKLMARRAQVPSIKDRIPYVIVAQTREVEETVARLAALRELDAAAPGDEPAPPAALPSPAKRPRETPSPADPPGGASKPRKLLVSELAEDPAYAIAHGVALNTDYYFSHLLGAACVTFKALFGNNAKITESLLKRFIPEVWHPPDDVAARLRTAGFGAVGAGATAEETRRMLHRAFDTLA

VZV polymerase = VZV polymerase (Varicella-zoster virus, UniProt P09252); experiment: VZV polymerase assay (Table 1); assay type: biochemical
VZV polymerase, sequence (P09252 whole entry): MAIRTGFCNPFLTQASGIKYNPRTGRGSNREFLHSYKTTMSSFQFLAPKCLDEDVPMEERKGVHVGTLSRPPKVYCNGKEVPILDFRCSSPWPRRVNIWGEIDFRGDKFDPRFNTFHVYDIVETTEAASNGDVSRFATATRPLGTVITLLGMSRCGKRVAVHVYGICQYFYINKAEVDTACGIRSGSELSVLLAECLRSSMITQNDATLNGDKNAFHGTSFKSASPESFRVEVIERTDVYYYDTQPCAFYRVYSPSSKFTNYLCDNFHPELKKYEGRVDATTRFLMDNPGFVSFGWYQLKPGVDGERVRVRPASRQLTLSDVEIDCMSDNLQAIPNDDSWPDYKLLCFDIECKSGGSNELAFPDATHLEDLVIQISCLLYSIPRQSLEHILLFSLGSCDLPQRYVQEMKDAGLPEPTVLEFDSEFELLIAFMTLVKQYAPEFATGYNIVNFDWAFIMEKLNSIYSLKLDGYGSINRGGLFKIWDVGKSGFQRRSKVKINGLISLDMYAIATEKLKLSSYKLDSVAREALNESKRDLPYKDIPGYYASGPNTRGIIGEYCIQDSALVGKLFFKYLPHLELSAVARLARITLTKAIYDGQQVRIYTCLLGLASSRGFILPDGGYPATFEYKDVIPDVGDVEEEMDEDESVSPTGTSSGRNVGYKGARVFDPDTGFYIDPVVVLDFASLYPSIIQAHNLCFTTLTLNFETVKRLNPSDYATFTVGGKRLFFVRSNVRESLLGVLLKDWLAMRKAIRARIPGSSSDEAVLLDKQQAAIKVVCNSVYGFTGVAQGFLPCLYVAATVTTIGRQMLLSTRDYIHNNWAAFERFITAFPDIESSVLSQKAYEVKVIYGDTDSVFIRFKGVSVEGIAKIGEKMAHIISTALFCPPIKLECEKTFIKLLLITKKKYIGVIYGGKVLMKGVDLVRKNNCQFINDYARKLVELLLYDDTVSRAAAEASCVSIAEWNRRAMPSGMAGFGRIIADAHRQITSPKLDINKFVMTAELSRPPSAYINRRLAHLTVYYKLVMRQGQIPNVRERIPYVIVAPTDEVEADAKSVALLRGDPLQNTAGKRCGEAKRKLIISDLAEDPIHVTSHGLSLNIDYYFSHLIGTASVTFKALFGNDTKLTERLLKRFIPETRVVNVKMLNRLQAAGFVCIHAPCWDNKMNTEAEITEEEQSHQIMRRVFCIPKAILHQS

[1] = HCMV polymerase, SPA, read-out: Polymerase IC50 HCMV

Row | melting point [°C] | IC50 (HCMV polymerase; [1]) [nM] | IC50 (HSV polymerase) [nM] | IC50 (VZV polymerase) [nM] | Compound | IC50 (HCMV polymerase) [nM]
1 | 122 to 123 | 1030 | – | – | COCCn1cc(C(=O)NCc2ccc(Cl)cc2)c(=O)c2cc(CN(C)CC(O)c3cnccn3)sc21 (racemic) [Example 21, rac-N-(4-Chlorobenzyl)-2-(((2-hydroxy-2-pyrazin-2-ylethyl)(methyl)amino)methyl)-7-(2-methoxyethyl)-4-oxo-4,7-dihydrothieno[2,3-b]pyridine-5-carboxamide] | –
2 | – | 2190 | – | – | CN(Cc1cc2c(=O)c(C(=O)NCc3ccc(Cl)cc3)cn(CC(O)CO)c2s1)C[C@@H](O)c1ccccn1 (stereo partly drawn) [Example 17, N-(4-Chlorobenzyl)-7-(2,3-dihydroxypropyl)-2-((((2R)-2-hydroxy-2-pyridin-2-ylethyl)(methyl)amino)methyl)-4-oxo-4,7-dihydrothieno[2,3-b]pyridine-5-carboxamide] | –
3 | – | 1160 | – | – | CN(Cc1cc2c(=O)c(C(=O)NCc3ccc(Cl)cc3)cn(CCO)c2s1)C[C@@H](O)c1ccccn1 [Example 20, N-(4-Chlorobenzyl)-7-(2-hydroxyethyl)-2-((((2R)-2-hydroxy-2-pyridin-2-ylethyl)(methyl)amino)methyl)-4-oxo-4,7-dihydrothieno[2,3-b]pyridine-5-carboxamide] | –
4 | – | 580 | – | – | CN(Cc1cc2c(=O)c(C(=O)NCc3ccc(Cl)cc3)cn(CCOCCO)c2s1)C[C@@H](O)c1cnccn1 [Example 22] | –
5 | – | 280 | 490 | 110 | CN(Cc1cc2c(=O)c(C(=O)NCc3ccc(F)cc3)cn(C)c2s1)C[C@@H](O)c1ccccn1 [Example 23, N-(4-Fluorobenzyl)-2-((((2R)-2-hydroxy-2-pyridin-2-ylethyl)(methyl)amino)methyl)-7-methyl-4-oxo-4,7-dihydrothieno[2,3-b]pyridine-5-carboxamide] | –
6 | 167 to 169 | 230 | – | – | CN(Cc1cc2c(=O)c(C(=O)NCc3ccc(C#N)cc3)cn(C)c2s1)C[C@@H](O)c1ccccn1 [Example 24, N(4-Cyanobenzyl)-2-((((2R)-2-hydroxy-2-pyridin-2-ylethyl)(methyl)amino)methyl)-7-methyl-4-oxo-4,7-dihydrothieno[2,3-b]pyridine-5-carboxamide] | –
7 | 151 to 153 | 150 | – | – | CN(Cc1cc2c(=O)c(C(=O)NCc3ccc(Br)cc3)cn(C)c2s1)C[C@@H](O)c1ccccn1 [Example 25, N(4-Bromobenzyl)-2-((((2R)-2-hydroxy-2-pyridin-2-ylethyl)(methyl)amino)methyl)-7-methyl-4-oxo-4,7-dihydrothieno[2,3-b]pyridine-5-carboxamide] | –

The next lines start with the compound.

Row | Compound | melting point [°C] | IC50 (HCMV polymerase; [1]) [nM] | IC50 (HSV polymerase) [nM] | IC50 (VZV polymerase) [nM] | IC50 (HCMV polymerase) [nM]
8 | CN(Cc1cc2c(=O)c(C(=O)NCc3ccc(Cl)cc3)cn(C)c2s1)CC(O)c1cccnc1 (racemic) [Example 1, rac-N-(4-Chlorobenzyl)-2-(((2-hydroxy-2-pyridin-3-ylethyl)(methyl)amino)methyl)-7-methyl-4-oxo-4,7-dihydrothieno[2,3-b]pyridine-5-carboxamide] | 160 to 162 | 160 | 580 | 220 | –
9 | CN(Cc1cc2c(=O)c(C(=O)NCc3ccc(Cl)cc3)cn(C)c2s1)CC(O)c1ccncc1 (racemic) [Example 3, rac-N-(4-Chlorobenzyl)-2-(((2-hydroxy-2-pyridin-4-ylethyl)(methyl)amino)methyl)-7-methyl-4-oxo-4,7-dihydrothieno[2,3-b]pyridine-5-carboxamide] | 185 to 188 | 200 | 470 | 220 | –
10 | CN(Cc1cc2c(=O)c(C(=O)NCc3ccc(Cl)cc3)cn(C)c2s1)CC(O)c1ccccn1 (racemic) [Example 4, rac-N-(4-Chlorobenzyl)-2-(((2-hydroxy-2-pyridin-2-ylethyl)(methyl)amino)methyl)-7-methyl-4-oxo-4,7-dihydrothieno[2,3-b]pyridine-5-carboxamide] | 145 to 147 | 90 | 100 | 30 | –
11 | Cc1cccc(C(O)CN(C)Cc2cc3c(=O)c(C(=O)NCc4ccc(Cl)cc4)cn(C)c3s2)n1 (racemic) [Example 6, rac-N-(4-Chlorobenzyl)-2-(((2-hydroxy-2-(6-methylpyridin-2-yl)ethyl)(methyl)amino)methyl)-7-methyl-4-oxo-4,7-dihydrothieno[2,3-b]pyridine-5-carboxamide] | 158 to 162 | 620 | – | – | –
12 | CN(Cc1cc2c(=O)c(C(=O)NCc3ccc(Cl)cc3)cn(C)c2s1)CC(O)c1ccc2ccccc2n1 (racemic) [Example 7, rac-N-(4-Chlorobenzyl)-2-(((2-hydroxy-2-quinolin-2-ylethyl)(methyl)amino)methyl)-7-methyl-4-oxo-4,7-dihydrothieno[2,3-b]pyridine-5-carboxamide] | 155 to 160 | 70 | 150 | 40 | –
13 | CN(Cc1cc2c(=O)c(C(=O)NCc3ccc(Cl)cc3)cn(C)c2s1)CC(O)c1ncccn1 (racemic) [Example 8, rac-N-(4-Chlorobenzyl)-2-(((2-hydroxy-2-pyrimidin-2-ylethyl)(methyl)amino)methyl)-7-methyl-4-oxo-4,7-dihydrothieno[2,3-b]pyridine-5-carboxamide] | 181 | 130 | 150 | 50 | –
14 | CN(Cc1cc2c(=O)c(C(=O)NCc3ccc(Cl)cc3)cn(C)c2s1)CC(O)c1cnccn1 (racemic) [Example 10, rac-N-(4-Chlorobenzyl)-2-(((2-hydroxy-2-pyrazin-2-ylethyl)(methyl)amino)methyl)-7-methyl-4-oxo-4,7-dihydrothieno[2,3-b]pyridine-5-carboxamide] | – | 110 | 100 | 50 | –
15 | CCCn1cc(C(=O)NCc2ccc(Cl)cc2)c(=O)c2cc(CN(C)CC(O)c3ccccn3)sc21 (racemic) [Example 15, rac-N-(4-Chlorobenzyl)-7-propyl-2-(((2-hydroxy-2-pyridin-2-ylethyl)(methyl)amino)methyl)-4-oxo-4,7-dihydrothieno[2,3-b]pyridine-5-carboxamide] | – | 1070 | – | – | –
16 | CCCn1cc(C(=O)NCc2ccc(Cl)cc2)c(=O)c2cc(CN(C)CC(O)c3cnccn3)sc21 (racemic) [Example 16, rac-N-(4-Chlorobenzyl)-2-(((2-hydroxy-2-pyrazin-2-ylethyl)(methyl)amino)methyl)-4-oxo-7-propyl-4,7-dihydrothieno[2,3-b]pyridine-5-carboxamide] | – | 310 | 1090 | 210 | –
17 | CN(Cc1cc2c(=O)c(C(=O)NCc3ccc(Cl)cc3)cn(CCCO)c2s1)CC(O)c1ncccn1 (racemic) [Example 19, rac-N-(4-Chlorobenzyl)-7-(3-hydroxypropyl)-2-(((2-hydroxy-2-pyrimidin-2-ylethyl)(methyl)amino)methyl)-4-oxo-4,7-dihydrothieno[2,3-b]pyridine-5-carboxamide] | – | – | – | – | 1120
18 | CN(Cc1cc2c(=O)c(C(=O)NCc3ccc(Cl)cc3)cn(C)c2s1)C[C@@H](O)c1ncccn1 [Example 9] | – | 50 | 130 | 30 | –
19 | CN(Cc1cc2c(=O)c(C(=O)NCc3ccc(Cl)cc3)cn(C)c2s1)C[C@@H](O)c1cnccn1 [Example 11, N-(4-Chlorobenzyl)-2-((((2R)-2-hydroxy-2-pyrazin-2-ylethyl)(methyl)amino)methyl)-7-methyl-4-oxo-4,7-dihydrothieno[2,3-b]pyridine-5-carboxamide] | – | 40 | 80 | 20 | –
20 | CN(Cc1cc2c(=O)c(C(=O)NCc3ccc(Cl)cc3)cn(C)c2s1)CC(O)c1cccnn1 (centres unmarked) [Example 12] | – | 310 | 840 | 230 | –
21 | CN(Cc1cc2c(=O)c(C(=O)NCc3ccc(Cl)cc3)cn(CCCO)c2s1)C[C@@H](O)c1ccccn1 [Example 18, N-(4-Chlorobenzyl)-7-(3-hydroxypropyl)-2-((((2R)-2-hydroxy-2-pyridin-2-ylethyl)(methyl)amino)methyl)-4-oxo-4,7-dihydrothieno[2,3-b]pyridine-5-carboxamide] | – | – | – | – | 1300
22 | rac-N-(4-Chlorobenzyl)-7-ethyl-2-(((2-hydroxy-2-pyrimidin-2-ylethyl)(methylamino)methyl)-4-oxo-4,7-dihydrothieno[2,3-b]pyridine-5-carboxamide [Example 14] | – | 1200 | – | – | –
